Experiment: Accelerated and long-term stability tests of Crystalline Form I
Type: physicochemical
Conditions: for Purity: HPLC
Experimental: X-ray powder diffraction (XRPD) patterns were obtained on a Shimadzu XRD-6000. A CuK source (=1.54056 angstrom) operating minimally at 40 kV and 30 mA scans each sample between 5 and 50 degrees 2-theta. The step size is 0.02 degrees 2-theta and the scan speed is 1 second per step.
Differential scanning calorimetry analysis was carried out on a TA Instrument DSC unit (METTLER DSC 3). Samples were heated in non-hermetic aluminum pans from ambient to 300° C. at 20 K/min with a nitrogen purge of 50 mL/min.
High-performance liquid chromatography (HPLC) was performed using the following instrument and/or conditions.
Example 8. Stability Tests of Crystalline Form I
Crystalline Form I was not changed after storage at 40° C./75% RH for 6 months, or storage at 25° C./60% RH for 6 months.

[1] = 25° C./60% RH (closed), 0 month
[2] = 25° C./60% RH (closed), 6 months
[3] = 40° C./75% RH (closed), 0 month
[4] = 40° C./75% RH (closed), 6 months

## CCCS(=O)(=O)Nc1cc(F)c(F)c(C(=O)c2ccc3ncc(N4CCOCC4)nc3c2)c1F [Crystalline Form I, N-(2,4,5-trifluoro-3-(3-morpholinoquinoxaline-6-carbonyl)phenyl)propane-1-sulfonamide]
[1]
  Appearance: Yellow powder
  DSC: 186.56 °C
  XRPD: Form I
  Purity: 99.93%
[2]
  Appearance: Yellow powder
  DSC: 186.08 °C
  XRPD: Form I
  Purity: 99.92%
[3]
  Appearance: Yellow powder
  DSC: 186.56 °C
  XRPD: Form I
  Purity: 99.93%
[4]
  Appearance: Yellow powder
  DSC: 186.54 °C
  XRPD: Form I
  Purity: 99.92%
Storage at 25° C./60% RH for 6 months
  Change of crystalline form after storage: not changed
Storage at 40° C./75% RH for 6 months
  Change of crystalline form after storage: not changed

From patent US20240116880A1, “CERTAIN CHEMICAL ENTITIES, COMPOSITIONS, AND METHODS” (NeuPharma, Inc, priority 2020, published 2024)
